Measurements published in patent US10975123B2, “Mutant Akt-specific capture agents, compositions, and methods of using and making” (California Institute of Technology, priority 2014, dated 2021).
Entries after “also recorded” stand apart in the source; their conditions may differ. Where a SMILES comes first, the peptide text is derived from it. Bridges are numbered along the chain shown (N, C = ends). Roman numbers before positions name the chains, in order. Triazole bridges read from a SMILES are 1,4-linked. Where no end group is shown, it is not given here. [ ]: non-standard residue; d: D form. The star is where a group is joined. Biotin = O=C1N[C@H]2[C@H](CS[C@H]2CCCCC(=O)*)N1; Lys(N3) = [N-]=[N+]=NCCCC[C@H](N)C(=O)O; PEG6 = NCCOCCOCCOCCOCCOCCOCCC(=O)O; dPra = C#CC[C@@H](N)C(=O)O

Columns and labels:
WT GST-PH Domain (Akt1) = biological target: T1, WT GST-PH Domain (Akt1) (Homo sapiens, UniProt P31749); test: Full curve ELISA, immobilized ligand, WT protein; type: binding; settings: in words
T1 construct: The first 124 N-terminal amino acids from full length Akt1 were used as the PH Domain DNA; GST (N); thrombin cleavage site (C); 6His (C); made in house; host or cells: E. coli BL21-DE3-pLys
T1 sequence (P31749 1-124): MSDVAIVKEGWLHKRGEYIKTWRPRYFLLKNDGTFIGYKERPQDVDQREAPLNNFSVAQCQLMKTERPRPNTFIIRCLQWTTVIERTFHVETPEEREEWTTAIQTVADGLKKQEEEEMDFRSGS
Procedure: The full curve ELISAs were obtained using streptavidin coated ELISA plates (Pierce). The ligands—anchor, biligand, triligand and “eflya” scrambled anchor peptide blank—were laid down at a concentration of 1 μM for one hour. Two lanes of each ligand were used on the plate for both proteins—WT and E17K GST-PH Domain. The plates were blocked with 5% BSA for two hours. Dilutions of both WT and E17K GST-PH Domain proteins were made in 0.5% BSA in 1×TBS starting from 1 μM-0.5 nM by serially diluting 1:2 down a series of 8 samples. For each ligand, a no protein blank was also used. The proteins were incubated with the blocked plate for one hour, washed 3× with 1×TBST+0.5% BSA and tapped dry, then detected with a 1:10,000 dilution of an HRP conjugated anti-GST pAb. The plate was again washed 3× with 1×TBST and tapped dry. It was developed with a 1:1 solution of TMB substrate and development was stopped with 1M H2SO4 and read on a plate reader. The curves in FIG. 4B were plotted by normalizing the signal by the blank wells, and were fitted to a Hill function in GraphPad using a common saturation and slope (Bmax=1.466+/−0.03, h=0.7383+/−0.025).

[1] = biological target: T2, wildtype PH Domain (PHD) of Akt1 (Homo sapiens, UniProt P31749); test: Streptavidin-agarose immunoprecipitation (pulldown), WT; type: binding; settings: in words
T2 construct: The first 124 N-terminal amino acids from full length Akt1 were used as the PH Domain DNA; made in house; host or cells: E. coli
T2 sequence (P31749 1-124): as above
Procedure: (§1) Four biligand candidates were chosen based on their hydrophobicity and sequence homology using principal component analysis (FIG. 25). Biligands were synthesized by coupling the 2° ligand onto Rink Amide Resin on the Titan peptide synthesizer. The amide group on the end of the Lys(N3) was capped by shaking the resin with 2 mL acetic anhydride, 2 mL NMP and 0.5 mL DIEA for 3×10 minutes, then washed with NMP. FMOC-Propargylglycine-Otbu (Pra) was clicked onto the Lys(N3) on the 2° ligand by incubating 2 eq of the Pra amino acid with 2 eq CuI and 2 eq ascorbic acid with 1 eq azide on resin in 20% piperidine/NMP for 3 hours. The resin was washed 5×4 mL with a chelating solution of 1 g sodium diethyldithiocarbamate in 20 mL NMP and 1 mL DIEA. The anchor was then built onto the 2° ligand on bead, and an N-terminal PEG5-biotin tag were added. Assays were performed exactly as for the anchor ligands, except for two key differences. The biligand assays were done with 6 ug of GST-tagged PHD protein, instead of the untagged PHD that was used in the anchor pulldowns. The pull-downs were also conducted out of 1% serum in 1×TBS, as opposed to just 1×TBS.
(§2) Pulldown assays were done on Streptavidin Agarose resin from Invitrogen. The resin was incubated with N-terminal biotinylated anchor peptide candidates identified via the ClusterLigand sequence analysis. The anchor candidate coated beads were then incubated with either the wildtype or mutant protein to compare the selectivity of the ligands, as well as the binding ability. The bound protein was eluted and western blotted to compare the amount of protein present for each sample.
(§3) Relative protein band sizes were analyzed to compare binding between the anchor candidates and were used to determine selectivity for either wildtype or mutant PH Domain (FIG. 11). […] Both of these ligands look fairly selective for their respective PH Domain.

[2] = biological target: T3, E17K PH Domain binding to PIP3 (Homo sapiens, UniProt P31749, E17K); test: PIP3 agarose inhibition assay, E17K; type: biochemical; settings: ligand 2.38 μM (10x protein), protein 234 nM, western blot, in words
T3 construct: 2 μg of either wildtype or mutant PH Domain-GFP protein (234 nM); made in house; host or cells: HEK-293-6E (used as cell lysate, not purified)
T3 sequence (P31749 5-108 E17K limits assumed): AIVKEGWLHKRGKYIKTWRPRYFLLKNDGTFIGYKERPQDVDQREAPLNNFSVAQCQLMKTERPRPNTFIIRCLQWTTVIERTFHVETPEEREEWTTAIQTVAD
Excerpt: The yleaf ligand, the biligand, and the triligand were all tested for their ability to block the E17K PHD binding with PIP3. For this test, PIP3-coated resin (Echelon Biosciences) was used to mimic the PHD interaction with the cell membrane, and could be used to bind the protein as in an immunoprecipitation assay^22. The presence of an effective blocking compound would reduce the ability of the resin to capture the protein, and would thus appear as a diminished signal in the corresponding western blot assay. A control lane containing no capture agent was used to show baseline binding of the protein to the PIP3 resin. […] In an expanded study, we compared the amount of E17K and WT PH domain binding relative to the amount of added triligand (FIG. 5e).
PIP3 Agarose beads (Echelon) were used to detect for the inhibition of PH Domain binding to its substrate, PIP3, upon incubation with the anchor candidate peptide ligands. To test the inhibition of each of the ligands, anchor biligand and triligand, 20 μL of resin slurry was added to each of four tubes and washed three times with 1×TBS. Protein, 2 μg (234 nM) of E17K mutant, was preincubated for one hour at room temperature with either DMSO (no protein blank), anchor, biligand or triligand at 2.38 μM (10× in relation to protein) in 200 μL of 1×TBS. For the control, mutant PH Domain was incubated with 1×TBS and 1 μL […] to mimic the ligand conditions. These protein samples were then added to PIP3 agarose in a Spin-X tube and incubated at room temperature for two hours. The resin was washed three times with 1×TBS with 0.25% IGEPAL CA-630, spun out to dry completely, then denatured with 50 μL 3×SDS gel loading buffer for 10 min at 95° C. The gel loading buffer was spun out of the resin and detected via western blot as per the Streptavidin-Agarose Pulldowns. Inhibition was indicated by a decrease in the amount of PH Domain that was pulled down by the resin.
Expanded inhibition blots with either WT of E17K mutant protein were performed in a similar fashion. Twelve tubes of 20 μL of PIP3 agarose were washed three times with 1×TBS. 2 μg of either wildtype or mutant PH Domain-GFP protein (234 nM) in 200 uL 1×TBS were preincubated for 30 minutes with differing concentrations of triligand: 0.1 eq (23.4 nM), 1 eq (234 nM), 10 eq (2.34 μM), 100 eq (23.4 μM), and 1000 eq (234 μM). The protein and triligand solutions were then incubated with the PIP3 resin for 2 hours at room temperature. The resins were washed, eluted, and blotted as per all PH Domain western blots.

[3] = biological target: T4, E17K GST-PH Domain (E17K Akt1) (Homo sapiens, UniProt P31749, E17K); test: Full curve ELISA, immobilized ligand, E17K protein; type: binding; settings: in words
T4 construct: The first 124 N-terminal amino acids from full length Akt1 were used as the PH Domain DNA; GST (N); thrombin cleavage site (C); 6His (C); made in house; host or cells: E. coli BL21-DE3-pLys
T4 sequence (P31749 1-124 E17K): as the sequence (P31749 1-124) above, with E17K counted along it
Procedure: The full curve ELISAs were obtained using streptavidin coated ELISA plates (Pierce). The ligands—anchor, biligand, triligand and “eflya” scrambled anchor peptide blank—were laid down at a concentration of 1 μM for one hour. Two lanes of each ligand were used on the plate for both proteins—WT and E17K GST-PH Domain. The plates were blocked with 5% BSA for two hours. Dilutions of both WT and E17K GST-PH Domain proteins were made in 0.5% BSA in 1×TBS starting from 1 μM-0.5 nM by serially diluting 1:2 down a series of 8 samples. For each ligand, a no protein blank was also used. The proteins were incubated with the blocked plate for one hour, washed 3× with 1×TBST+0.5% BSA and tapped dry, then detected with a 1:10,000 dilution of an HRP conjugated anti-GST pAb. The plate was again washed 3× with 1×TBST and tapped dry. It was developed with a 1:1 solution of TMB substrate and development was stopped with 1M H2SO4 and read on a plate reader.

[4] = biological target: T5, E17K mutant PH Domain (PHD) of Akt1 (Homo sapiens, UniProt P31749, E17K); test: Streptavidin-agarose immunoprecipitation (pulldown), E17K; type: binding; settings: in words
T5 construct: The first 124 N-terminal amino acids from full length Akt1 were used as the PH Domain DNA; made in house; host or cells: E. coli
T5 sequence (P31749 1-124 E17K): as the sequence (P31749 1-124) above, with E17K counted along it
Procedure: as §1, §2, §3

[5] = biological target: T6, E17K 33-mer fragment (6His-tagged) (Homo sapiens, UniProt P31749, E17K/H13K); test: HPLC-detected immunoprecipitation (pulldown), E17K 33-mer; type: binding; settings: 50 μM epitope, overnight 4° C., guanidine elution, in words
T6 construct: made in house; host or cells: chemical synthesis (Fmoc SPPS)
T6 sequence (P31749 1-33 H13K/E17K limits assumed): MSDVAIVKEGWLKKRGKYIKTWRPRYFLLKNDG
Excerpt: The label-modified yleaf (SEQ ID NO: 43) peptide (FIG. 2a and FIG. 12) was subjected to a variety of binding assays against the synthesized WT and E17K 33-mer PHD fragments prepared without the biotin label and alkyne click handle. First, the yleaf (SEQ ID NO: 43) peptide was used in immunoprecipitation assays to pull-down either the WT or E17K mutant 6His-tagged (SEQ ID NO: 4) 33-mer peptide fragments (FIGS. 13 and 14), as opposed to the full-length proteins that were used to initially validate the candidates. Typical immunoprecipitation assays involve western blotting to estimate the amount of protein binding, but 33-mer peptide fragments are not easily quantified on a blot. Because of this, the amount of peptide epitope precipitated in these assays was quantified via injection on an analytical HPLC. These assays further confirmed preferential yleaf (SEQ ID NO: 43) ligand binding to the E17K 33-mer epitope relative to the WT epitope (FIG. 15).
Pulldown assays with the biotinylated anchor and his-tagged 33-mer epitope were performed to verify epitope targeting. […] Because small peptide fragments like the 33-mer epitope are difficult to transfer to and detect on the nitrocellulose membrane as for a traditional Western blot, the amount of binding in these assays was detected via HPLC. […]

[6] = 6 ug GST-tagged PHD, 1% serum in 1xTBS, western blot, listed as yleaf-yksy
[7] = streptavidin agarose, 1xTBS, western blot band size

Row | amount of E17K 33-mer fragment pulled down (HPLC peak) [5] | Compound | change in binding affinity for the WT protein versus the preceding ligand (ELISA) (WT GST-PH Domain (Akt1)) | pulldown of WT GST-PHD by biligand candidates [1, 6] | inhibition of E17K PH Domain binding to PIP3-coated resin [2] | inhibition of E17K PH Domain binding to PIP3-coated resin ([2]; listed as biligand 7) | change in binding affinity for the E17K protein versus the preceding ligand (ELISA) [3] | pulldown of E17K GST-PHD by biligand candidates [4, 6] | pulldown of wildtype PH Domain by biotinylated anchor candidates [1, 7] | pulldown of E17K mutant PH Domain by biotinylated anchor candidates [4, 7]
1 |  | CC(=O)N[C@@H](CCCCn1cc(C[C@@H](NC(=O)[C@@H](Cc2ccccc2)NC(=O)[C@@H](C)NC(=O)[C@@H](CCC(=O)O)NC(=O)[C@@H](CC(C)C)NC(=O)[C@@H](Cc2ccc(O)cc2)NC(=O)CCOCCOCCOCCOCCOCCOCCNC(=O)CCCC[C@@H]2SC[C@@H]3NC(=O)N[C@@H]32)C(=O)O)nn1)C(=O)N[C@H](Cc1ccc(O)cc1)C(=O)N[C@H](CCCCN)C(=O)N[C@H](CO)C(=O)N[C@H](Cc1ccc(O)cc1)C(N)=O [biligand] (I: {Biotin-PEG6}-[dY][dL][dE][dA][dF][dPra]-OH / II: Ac-[Lys(N3)][dY][dK][dS][dY]-NH2; triazole I:6-II:1) | an even larger increase in affinity for the WT protein | the lowest in binding the WT protein; also recorded: the lowest off-target signal to the WT protein | exhibited the ability to block the PHD-PIP3 interaction | decreased binding of the protein | an increase in affinity for the E17K mutant protein | the greatest signal in binding the E17K protein; also recorded: the highest signal for the E17K protein |  | 
2 | much less pull down than the yleaf | eefef ([dE][dE][dF][dE][dF]) [off-target control] |  |  |  |  |  |  | the only pulldown of the wildtype protein | the least pulldown for the mutant protein
3 |  | iryrn: triligand candidate: biligand yleaf-yksy with tertiary ligand iryrn (SEQ ID NO: 92) (IRYRN) | an even bigger increase for the WT protein |  |  |  | a significant improvement on the binding affinity for the E17K protein |  |  | 
